Columns and labels:
[1] = system: beta-lactamases, including NDM-1, IMP-1, VIM-2, KPC-2, OXA-48, AmpC, and TEM; test: Hydrolysis of nitrocefin by beta-lactamases, absorbance at 485 nm; format: biochemical; conditions: nitrocefin 50 μM
Procedure: (§1) Recombinant his-tagged beta-lactamases, including NDM-1, IMP-1, KPC-2, VIM-2 and OXA-48 were overexpressed in Escherichia coli. The enzymes were purified using HisTrap Ni-NTA columns. AmpC and TEM were purchased from commercial sources.
The enzymatic activity of these beta-lactamases in hydrolysing beta-lactam compounds was tested using nitrocefin as a probe. Nitrocefin (50 μM) dissolved in phosphate buffer (pH=7.4) was mixed with each purified beta-lactamase. Once hydrolyzed, nitrocefin underwent a rapid color change from yellow to red. The hydrolysis process of nitrocefin was monitored by measuring the absorbance at 485 nm with a Molecular Device SpectraMax® Paradigm® Multi-Mode Microplate Reader.
(§2) Among the tested beta-lactamases, NDM-1, IMP-1, VIM-2, KPC-2 and OXA-48 are carbapenemases, whereas AmpC and TEM are not. Nitrocefin was used as a control to test the activity of the beta-lactamases because it can be hydrolyzed by a wide range of beta-lactamases.

[2] = system: clinical isolates (CPE, Carbapenemase Producing Enterobacteriaceae, and Non CPE strains); test: Selectivity of probes with clinical isolates in lysis buffer (visible light and UV light); format: cell-based; conditions: probe 10 μM
Procedure: The selectivity of some probes were evaluated with clinical isolates. The carbapenemases presence in the bacteria (CPE, i.e., Carbapenemase Producing Enterobacteriaceae) were verified by PCR (Polymerase Chain Reaction). 1 μL loop-full of each test bacterium from overnight-cultured LB agar plate were added to 100 μL PBS buffer with 0.5% CHAPS. The bacteria were vortexed to give a homogenious suspension and incubated for 15 min. To each of the bacteria-lysis buffer mixture (20 μL) were added quick test reagents (Probes (Final concentration=10 μM), CarbaNP solution A and CarbaNP solution B). CarbaNP solutions A and B were freshly prepared according to CLSI protocol, where solution A contains 10 mM zinc sulphate and phenol red buffer at pH=7.8±0.1 and solution B was a mixture of solution A with 3 mg/mL imipenem.

[3] = system: beta-lactamases, including NDM-1, IMP-1, VIM-2, KPC-2, OXA-48, AmpC, and TEM; test: Fluorescence-based activity assay, whole panel of tested beta-lactamases; format: biochemical; conditions: conclusion from fluorescence signals
Procedure: as §1
(§3) The fluorescence-based activity assays were performed in phosphate-buffer saline. The concentration of some of the compounds were determined by boiling the compounds in PBS solution until fluorescence signal was saturated. The amount of released fluorophore was quantified via fluorescence spectroscopy by comparing to a corresponding calibration curve.
as §2

TEM = target: T1, TEM (Escherichia coli, UniProt P62593); test: Activity of beta-lactamases towards probes (fluorescence-based activity assay), TEM; format: biochemical; conditions: probe 2.0 μM (MCW-002 1.1 μM, MCW-011 0.5 μM), PBS
T1 construct: purchased
Procedure: as §1, §3

IMP-1 = target: T2, IMP-1 (Serratia marcescens, UniProt P52699); format: biochemical; conditions: for 3S/k (detection limit of the probe towards the carbapenemase) / time until hydrolysis reaction complete (fluorescent signal plateaued) / fluorescence signal over time / Kcat / Km: IMP-1; for time until hydrolysis reaction complete (fluorescent signal plateaued): probe 2.0 μM; for fluorescence signal over time: probe 2.0 μM (MCW-002 1.1 μM, MCW-011 0.5 μM), PBS; for Kcat / Km: Michaelis-Menten kinetics
T2 construct: His tag; made in house; host or cells: Escherichia coli
Procedure: as §1, §3

VIM-2 = target: T3, VIM-2 (Escherichia coli, UniProt Q5U7L7); format: biochemical; conditions: for Kcat / Km: Michaelis-Menten kinetics; for fluorescence signal over time: probe 2.0 μM (MCW-011 0.5 μM), PBS
T3 construct: His tag; made in house; host or cells: Escherichia coli
Procedure: as §1, §3

KPC-2 = target: T4, KPC-2 (Klebsiella pneumoniae, UniProt Q9F663); format: biochemical; conditions: for Kcat / Km: Michaelis-Menten kinetics; for fluorescence signal over time: probe 2.0 μM (MCW-002 1.1 μM, MCW-011 0.5 μM), PBS
T4 construct: His tag; made in house; host or cells: Escherichia coli
Procedure: as §1, §3

NDM-1 = target: T5, NDM-1 (Klebsiella pneumoniae, UniProt C7C422); format: biochemical; conditions: for Kcat / Km: Michaelis-Menten kinetics; for time until hydrolysis reaction complete (fluorescent signal plateaued): probe 2.0 μM; for fluorescence signal over time: probe 2.0 μM (MCW-002 1.1 μM, MCW-011 0.5 μM), PBS
T5 construct: His tag; made in house; host or cells: Escherichia coli
Procedure: as §1, §3

OXA-48 = target: T6, OXA-48 (Klebsiella pneumoniae, UniProt Q6XEC0); format: biochemical; conditions: for fluorescence signal over time: probe 2.0 μM (MCW-011 0.5 μM), PBS
T6 construct: His tag; made in house; host or cells: Escherichia coli
Procedure: as §1, §3

AmpC = test: Activity of beta-lactamases towards probes (fluorescence-based activity assay), AmpC; format: biochemical; conditions: probe 2.0 μM (MCW-002 1.1 μM, MCW-011 0.5 μM), PBS
Procedure: as §1, §3

T4 sequence (Q9F663 25-293 limits assumed): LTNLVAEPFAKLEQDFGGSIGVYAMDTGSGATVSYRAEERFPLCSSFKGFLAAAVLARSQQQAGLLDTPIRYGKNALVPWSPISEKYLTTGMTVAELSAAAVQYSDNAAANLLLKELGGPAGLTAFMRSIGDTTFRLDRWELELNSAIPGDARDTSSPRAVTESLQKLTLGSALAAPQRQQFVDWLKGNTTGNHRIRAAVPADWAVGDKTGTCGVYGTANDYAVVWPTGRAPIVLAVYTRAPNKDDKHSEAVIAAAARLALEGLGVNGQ
T2 sequence (P52699 19-246 limits assumed): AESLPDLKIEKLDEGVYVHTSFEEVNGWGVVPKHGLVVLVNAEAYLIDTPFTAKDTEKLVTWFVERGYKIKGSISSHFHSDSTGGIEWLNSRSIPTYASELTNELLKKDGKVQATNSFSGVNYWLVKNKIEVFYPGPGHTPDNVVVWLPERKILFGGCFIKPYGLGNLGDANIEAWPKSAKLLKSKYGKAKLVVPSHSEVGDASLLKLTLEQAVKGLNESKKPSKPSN
T5 sequence (C7C422 29-270 limits assumed): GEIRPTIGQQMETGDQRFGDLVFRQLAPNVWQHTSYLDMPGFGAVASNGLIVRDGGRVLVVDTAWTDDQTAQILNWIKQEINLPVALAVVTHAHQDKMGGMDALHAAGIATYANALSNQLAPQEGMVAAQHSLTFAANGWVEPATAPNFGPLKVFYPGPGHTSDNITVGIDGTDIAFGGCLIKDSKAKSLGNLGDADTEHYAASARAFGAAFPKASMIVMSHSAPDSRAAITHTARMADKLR
T6 sequence (Q6XEC0 23-265 limits assumed): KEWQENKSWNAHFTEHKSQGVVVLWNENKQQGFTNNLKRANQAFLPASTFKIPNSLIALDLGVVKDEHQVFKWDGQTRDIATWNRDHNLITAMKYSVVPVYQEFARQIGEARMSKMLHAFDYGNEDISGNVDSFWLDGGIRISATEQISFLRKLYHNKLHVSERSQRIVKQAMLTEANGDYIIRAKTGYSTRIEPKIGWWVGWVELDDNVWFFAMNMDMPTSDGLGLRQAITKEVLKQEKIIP
T1 sequence (P62593 24-286 limits assumed): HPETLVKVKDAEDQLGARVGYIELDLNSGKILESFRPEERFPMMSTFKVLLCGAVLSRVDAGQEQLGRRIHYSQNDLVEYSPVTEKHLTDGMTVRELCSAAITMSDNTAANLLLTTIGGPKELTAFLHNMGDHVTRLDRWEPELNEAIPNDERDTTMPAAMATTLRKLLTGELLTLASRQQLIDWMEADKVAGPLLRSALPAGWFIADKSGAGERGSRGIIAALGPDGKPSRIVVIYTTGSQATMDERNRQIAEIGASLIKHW

O=C(Cc1cccs1)N[C@@H]1C(=O)N2C(C(=O)O)=C(/C=C/c3ccc([N+](=O)[O-])cc3[N+](=O)[O-])CS[C@H]12 [nitrocefin]
hydrolysis of nitrocefin ([1]; all of the tested beta-lactamases): can hydrolyze nitrocefin | time until hydrolysis reactions complete (absorption at 485 nm plateaued) ([1]; except NDM-1): ≤ 30 min

COc1cc(COc2ccc3nc4ccc(=O)cc-4oc3c2)ccc1OC/C=C/C1=C(C(=O)O)N2C(=O)[C@H]([C@@H](C)O)[C@H]2[C@H]1C [MCW-007, (4S,5R,6S)-6-((R)-1-hydroxyethyl)-3-((E)-3-(2-methoxy-4-(((3-oxo-3H-phenoxazin-7-yl)oxy)methyl)phenoxy)prop-1-en-1-yl)-4-methyl-7-oxo-1-azabicyclo[3.2.0]hept-2-ene-2-carboxylic acid]
signal with panel of clinical isolates ([2]; incubated for 15 min): observable colorimetric and fluorescence signal in some CPE strains but not the Non CPE strains | signal with panel of clinical isolates ([2]; incubated for 120 min): observable colorimetric and fluorescence signal in CPE strains but not the Non CPE strains | specificity among the tested beta-lactamases [3]: specific for some carbapenemases | fluorescence signal over time (TEM): minimal changes in the fluorescent signal | 3S/k (detection limit of the probe towards the carbapenemase) (IMP-1): 0.379 pM | time until hydrolysis reaction complete (fluorescent signal plateaued) (IMP-1): ≤ 5 min | fluorescence signal over time (IMP-1): pronounced increase in the fluorescent signal | Kcat (IMP-1): 116 ± 2.81 s⁻¹ | Km (IMP-1): 1.33 ± 0.08 µM | 3S/k (detection limit of the probe towards the carbapenemase) (VIM-2): 5.22 pM | relative rate of hydrolysis reaction (VIM-2): slower compared to the reaction with NDM-1 and IMP-1 | Kcat (VIM-2): 6.87 ± 0.11 s⁻¹ | Km (VIM-2): 0.92 ± 0.04 µM | fluorescence signal over time (VIM-2): pronounced increase in the fluorescent signal | 3S/k (detection limit of the probe towards the carbapenemase) (KPC-2): 8.50 pM | relative rate of hydrolysis reaction (KPC-2): slower compared to the reaction with NDM-1 and IMP-1 | Kcat (KPC-2): 8.04 ± 1.96 s⁻¹ | Km (KPC-2): 0.77 ± 0.06 µM | fluorescence signal over time (KPC-2): pronounced increase in the fluorescent signal | 3S/k (detection limit of the probe towards the carbapenemase) (NDM-1): 0.439 pM | Kcat (NDM-1): 95.1 ± 4.32 s⁻¹ | Km (NDM-1): 1.56 ± 0.17 µM | time until hydrolysis reaction complete (fluorescent signal plateaued) (NDM-1): ≤ 5 min | fluorescence signal over time (NDM-1): pronounced increase in the fluorescent signal | 3S/k (detection limit of the probe towards the carbapenemase) (OXA-48): 367 pM | fluorescence signal over time (OXA-48): did not provide significant fluorescence response | fluorescence signal over time (AmpC): minimal changes in the fluorescent signal

COc1cc(COc2ccc3nc4ccc(=O)cc-4oc3c2)ccc1OC/C=C/C1=C(C(=O)O)N2C(=O)[C@H]([C@@H](C)O)[C@H]2C1 [MCW-001, (5R,6S)-6-((R)-1-hydroxyethyl)-3-((E)-3-(2-methoxy-4-(((3-oxo-3H-phenoxazin-7-yl)oxy)methyl)phenoxy)prop-1-en-1-yl)-7-oxo-1-azabicyclo[3.2.0]hept-2-ene-2-carboxylic acid]
signal with panel of clinical isolates ([2]; incubated for 15 min): observable colorimetric and fluorescence signal in CPE strains but not the Non CPE strains | signal with panel of clinical isolates ([2]; incubated for 120 min): observable colorimetric and fluorescence signal in CPE strains but not the Non CPE strains | specificity among the tested beta-lactamases [3]: specific for carbapenemases | fluorescence signal over time (TEM): minimal changes in the fluorescent signal | 3S/k (detection limit of the probe towards the carbapenemase) (IMP-1): 0.333 pM | time until hydrolysis reaction complete (fluorescent signal plateaued) (IMP-1): ≤ 2 min | fluorescence signal over time (IMP-1): pronounced increase in the fluorescent signal | fluorescence turn-on signal upon beta-lactam hydrolysis (IMP-1; MCW-001 1 μM, IMP-1 0.5 μM): more than 60 fold | absorption change over time (IMP-1; MCW-001 10 μM, IMP-1 2 μM): decreased in absorbance maximum at 480 nm and increase in absorbance maximum at 571 nm | Kcat (IMP-1): 33.9 ± 0.71 s⁻¹ | Km (IMP-1): 1.2 ± 0.08 µM | 3S/k (detection limit of the probe towards the carbapenemase) (VIM-2): 3.28 pM | relative rate of hydrolysis reaction (VIM-2): slower compared to the reactions with NDM-1 and IMP-1 | Kcat (VIM-2): 1.96 ± 0.05 s⁻¹ | Km (VIM-2): 1.18 ± 0.1 µM | time until hydrolysis reaction complete (fluorescent signal plateaued) (VIM-2; probe 2.0 μM): about 25 min | fluorescence signal over time (VIM-2): pronounced increase in the fluorescent signal | 3S/k (detection limit of the probe towards the carbapenemase) (KPC-2): 4.43 pM | relative rate of hydrolysis reaction (KPC-2): slower compared to the reactions with NDM-1 and IMP-1 | Kcat (KPC-2): 2.17 ± 0.07 s⁻¹ | Km (KPC-2): 0.93 ± 0.11 µM | time until hydrolysis reaction complete (fluorescent signal plateaued) (KPC-2; probe 2.0 μM): about 25 min | fluorescence signal over time (KPC-2): pronounced increase in the fluorescent signal | 3S/k (detection limit of the probe towards the carbapenemase) (NDM-1): 0.327 pM | Kcat (NDM-1): 29.8 ± 0.81 s⁻¹ | Km (NDM-1): 1.66 ± 0.13 µM | time until hydrolysis reaction complete (fluorescent signal plateaued) (NDM-1): ≤ 2 min | fluorescence signal over time (NDM-1): pronounced increase in the fluorescent signal | 3S/k (detection limit of the probe towards the carbapenemase) (OXA-48): 30.3 pM | Kcat (OXA-48; Michaelis-Menten kinetics): 2.83 ± 0.18 s⁻¹ | Km (OXA-48; Michaelis-Menten kinetics): 0.66 ± 0.08 µM | time until hydrolysis reaction complete (fluorescent signal plateaued) (OXA-48; probe 2.0 μM): > 30 min | fluorescence signal over time (OXA-48): pronounced increase in the fluorescent signal | fluorescence signal over time (AmpC): minimal changes in the fluorescent signal

Reference: patent publication US20210207188A1, “BETA-LACTAM COMPOUNDS AND METHODS OF USE THEREOF” (priority 2018, published 2021)
